We go through 19 molecules from patent publication US8754226B2, “Piperidinyl-substituted lactams as GPR119 modulators” (Array BioPharma Inc., priority 2010, dated 2014).

In this experiment the test system is modified version of the GPR119 receptor (94% identity to human receptor). In words: cAMP production assay (LANCE cAMP kit, TR-FRET) in HEK-293 cells. The format is cell-based. The following applies: for cAMP production in HEK-293 cells: HEK-293 cells stably expressing modified GPR119, test compounds 0.2 nM to 10 μM, one-hour incubation at ambient temperature; for Fold over baseline: increase in cAMP relative to basal levels, agonist activity if 1.5-fold or greater. In a few lines:
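Doxycycline-induced (1 μg/mL, overnight) HEK-293 cells expressing modified GPR119 were thawed, 2000 cells/well, and exposed to compounds (0.2 nM-10 μM final, 0.5% DMSO) for 1 h at ambient temperature in HBSS/HEPES/BSA. cAMP was measured by LANCE TR-FRET against a standard curve. Agonism was defined as ≥1.5-fold over basal.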
For orientation: cAMP levels reflect the balance of adenylyl cyclase and phosphodiesterase activity.

With `CS(=O)(=O)c1cc(F)c(N[C@H]2CCCCN(C3CCN(c4cnc(Cl)cn4)CC3)C2=O)cc1F.Cl` [Example 81, (S)-1-(1-(5-chloropyrazin-2-yl)piperidin-4-yl)-3-(2,5-difluoro-4-(methylsulfonyl)phenylamino)azepan-2-one hydrochloride], the “cAMP production in HEK-293 cells” value stood at 22.7 nmol and the Fold over baseline is 5.0.

With `CCc1cnc(N2CCC(N3CCC[C@H](Nc4cc(F)c(S(C)(=O)=O)cc4F)C3=O)CC2)cn1` [Example 59, (S)-3-(2,5-difluoro-4-(methylsulfonyl)phenylamino)-1′-(5-ethylpyrazin-2-yl)-[1,4′-bipiperidin]-2-one], the “cAMP production in HEK-293 cells” value was determined as 22.6 nmol and the Fold over baseline is given as 3.4.

`Cc1cc(N[C@H]2CCN(C3CCN(c4ncc(Cl)cc4F)CC3)C2=O)cnc1S(C)(=O)=O` [Example 120, (S)-1-(1-(5-chloro-3-fluoropyridin-2-yl)piperidin-4-yl)-3-(5-methyl-6-(methylsulfonyl)pyridin-3-ylamino) pyrrolidin-2-one]: the “cAMP production in HEK-293 cells” value was found to be 18.6 nmol and the Fold over baseline was 3.8.

Turning to `CC(C)c1cnc(N2CCC(N3CCC[C@H](Nc4cc(F)c(S(C)(=O)=O)cc4F)C3=O)CC2)cn1` [Example 60, (S)-3-(2,5-difluoro-4-(methylsulfonyl)phenylamino)-1′-(5-isopropylpyrazin-2-yl)-[1,4′-bipiperidin]-2-one], the “cAMP production in HEK-293 cells” value is 27.4 nmol and the Fold over baseline stood at 4.4.

As to `CS(=O)(=O)c1ccc(N[C@H]2CCN(C3CCN(c4cnc(Cl)cn4)CC3)C2=O)c(F)c1` [Example 4, (S)-1-(1-(5-chloropyrazin-2-yl)piperidin-4-yl)-3-(2-fluoro-4-(methylsulfonyl)phenylamino)pyrrolidin-2-one], the “cAMP production in HEK-293 cells” value stood at 27.3 nmol and the Fold over baseline was 4.1.

For `CS(=O)(=O)c1ccc(N[C@H]2CCN(C3CCN(c4ncc(Cl)cc4F)CC3)C2=O)cn1` [Example 130, (S)-1-(1-(5-chloro-3-fluoropyridin-2-yl)piperidin-4-yl)-3-(6-(methylsulfonyl)pyridin-3-ylamino)pyrrolidin-2-one], the “cAMP production in HEK-293 cells” value was 26.8 nmol and the Fold over baseline worked out at 3.5.

With `Cc1cnc(N2CCC(N3CCC[C@H](Nc4ccc(S(C)(=O)=O)cc4F)C3=O)CC2)nc1` [Example 43, (S)-3-(2-fluoro-4-(methylsulfonyl)phenylamino)-1′-(5-methylpyrimidin-2-yl)-[1,4′-bipiperidin]-2-one], the “cAMP production in HEK-293 cells” value was determined as 6.9 nmol and the Fold over baseline is 1.7.

`CCc1cnc(N2CCC(N3CC[C@H](Nc4cc5c(cc4Cl)C(=O)CCO5)C3=O)CC2)nc1` [Example 36]: the “cAMP production in HEK-293 cells” value stood at 17.4 nmol and the Fold over baseline was determined as 3.2.

Take `CS(=O)(=O)c1cc(F)c(N[C@H]2CCN(C3CCN(c4ncc(Cl)cc4Cl)CC3)C2=O)cc1F` [Example 113, (S)-1-(1-(3,5-dichloropyridin-2-yl)piperidin-4-yl)-3-(2,5-difluoro-4-(methylsulfonyl)phenyl-amino)pyrrolidin-2-one]: the “cAMP production in HEK-293 cells” value was 29.1 nmol and the Fold over baseline came out at 2.1.

`Cc1cc(S(C)(=O)=O)ncc1N[C@H]1CCN(C2CCN(c3cnc(Cl)cn3)CC2)C1=O` [Example 123, (S)-1-(1-(5-chloropyrazin-2-yl)piperidin-4-yl)-3-(4-methyl-6-(methylsulfonyl)pyridin-3-ylamino) pyrrolidin-2-one]: the “cAMP production in HEK-293 cells” value is 15.8 nmol and the Fold over baseline was determined as 3.5.

For `CS(=O)(=O)c1cc(F)c(OC2CCN(C3CCN(c4ncc(-c5ccccc5)cn4)CC3)C2=O)cc1F` (centres unmarked) [Example 88, 3-(2,5-difluoro-4-(methylsulfonyl)phenoxy)-1-(1-(5-phenylpyrimidin-2-yl)piperidin-4-yl)pyrrolidin-2-one trifluoroactetate], the “cAMP production in HEK-293 cells” value was 9.1 nmol and the Fold over baseline is reported as 2.4.

As for `CS(=O)(=O)c1ccc(N[C@H]2CCN(C3CCN(c4cncc(Cl)n4)CC3)C2=O)c(F)c1` [Example 18, (S)-1-(1-(6-chloropyrazin-2-yl)piperidin-4-yl)-3-(2-fluoro-4-(methylsulfonyl)phenylamino) pyrrolidin-2-one], the “cAMP production in HEK-293 cells” value is 7.7 nmol and the Fold over baseline was 1.8.

As for `CS(=O)(=O)c1ccc(N[C@H]2CCCN(C3CCN(c4ncc(C(F)(F)F)cc4F)CC3)C2=O)c(F)c1` [Example 146, (S)-3-(2-fluoro-4-(methylsulfonyl)phenyl-amino)-1′-(3-fluoro-5-(trifluoromethyl)pyridin-2-yl)-1,4′-bipiperidin-2-one], the “cAMP production in HEK-293 cells” value is 34.6 nmol and the Fold over baseline was 2.6.

As for `Cc1cc(N[C@H]2CCN(C3CCN(c4cnc(Cl)cn4)CC3)C2=O)cnc1S(C)(=O)=O` (stereo in doubt) [Example 135, 1-(1-(5-chloropyrazin-2-yl)piperidin-4-yl)-3-(5-methyl-6-(methylsulfonyl)pyridin-3-ylamino)pyrrolidin-2-one], the “cAMP production in HEK-293 cells” value was 31.0 nmol and the Fold over baseline is listed as 6.6.

As for `CCS(=O)(=O)c1ccc(N[C@H]2CCN(C3CCN(c4cnc(Cl)cn4)CC3)C2=O)cn1` [Example 128, (S)-1-(1-(5-chloropyrazin-2-yl)piperidin-4-yl)-3-(6-(ethylsulfonyl)pyridin-3-ylamino)pyrrolidin-2-one], the “cAMP production in HEK-293 cells” value was 16.6 nmol and the Fold over baseline worked out at 3.4.

Turning to `O=C(c1ccc(O[C@H]2CCN(C3CCN(c4ncc(Cl)cc4F)CC3)C2=O)c(F)c1)N1CC[C@H](O)C1` [Example 153, (S)-1-(1-(5-chloro-3-fluoropyridin-2-yl)piperidin-4-yl)-3-(2-fluoro-4-((S)-3-hydroxypyrrolidine-1-carbonyl)phenoxy)pyrrolidin-2-one], the “cAMP production in HEK-293 cells” value was found to be 14.3 nmol and the Fold over baseline is on record as 3.1.

Regarding `O=C1[C@@H](Nc2ccc(C(F)(F)F)cn2)CCN1C1CCN(c2cnc(Cl)cn2)CC1` [Example 23, (S)-1-(1-(5-chloropyrazin-2-yl)piperidin-4-yl)-3-(5-(trifluoromethyl)pyridin-2-ylamino)pyrrolidin-2-one], the “cAMP production in HEK-293 cells” value turned out to be 13.6 nmol and the Fold over baseline came to 3.0.

With `CS(=O)(=O)c1ccc(N[C@H]2CCN(C3CCN(c4ncc(Cl)nc4Cl)CC3)C2=O)c(F)c1` [Example 147, (S)-1-(1-(3,5-dichloropyrazin-2-yl)piperidin-4-yl)-3-(2-fluoro-4-(methylsulfonyl)phenylamino)pyrrolidin-2-one], the “cAMP production in HEK-293 cells” value was 46.4 nmol and the Fold over baseline is recorded as 3.6.

With `CCc1cnc(N2CCC(N3CCCC(Nc4ccc(S(C)(=O)=O)cc4F)C3=O)CC2)c(C)c1` (centres unmarked) [Example 77, 1′-(5-ethyl-3-methylpyridin-2-yl)-3-(2-fluoro-4-(methylsulfonyl)phenylamino)-[1,4′-bipiperidin]-2-one], the “cAMP production in HEK-293 cells” value came to 21.3 nmol and the Fold over baseline turned out to be 2.5.
